Experimental data from BindingDB's records for doi:10.1016/S0960-894X(01)80235-3 (1994).
pIC50: −log10 of the molar value.

Target: O-acyltransferase (Oryctolagus cuniculus, UniProt G1SFD9)
Experiment: ChEBML_28168
Procedure: In vitro Acyl coenzyme A:cholesterol acyltransferase inhibition by incubation with [14C]oleolyl-CoA and intestinal microsomes isolated from cholesterol-fed rabbits.

O-acyltransferase, sequence (G1SFD9 1-524): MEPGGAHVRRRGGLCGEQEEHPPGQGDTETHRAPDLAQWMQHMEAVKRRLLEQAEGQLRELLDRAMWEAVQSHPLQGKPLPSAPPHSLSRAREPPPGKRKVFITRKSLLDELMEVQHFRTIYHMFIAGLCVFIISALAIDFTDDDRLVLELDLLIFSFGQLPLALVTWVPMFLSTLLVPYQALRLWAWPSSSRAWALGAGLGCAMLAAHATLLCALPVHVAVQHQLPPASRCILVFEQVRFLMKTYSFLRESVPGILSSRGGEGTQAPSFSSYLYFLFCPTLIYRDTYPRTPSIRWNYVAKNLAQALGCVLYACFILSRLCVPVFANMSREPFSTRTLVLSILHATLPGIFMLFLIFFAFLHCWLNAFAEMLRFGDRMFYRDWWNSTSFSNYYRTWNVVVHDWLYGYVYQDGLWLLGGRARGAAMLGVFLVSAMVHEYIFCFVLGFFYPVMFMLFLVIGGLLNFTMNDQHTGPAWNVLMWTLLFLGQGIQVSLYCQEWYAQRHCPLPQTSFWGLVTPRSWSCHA

pIC50	SMILES
5.30	CCCCCCCCCCc1cc(=O)n(-c2c(C)cccc2C)[nH]1 [5-Decyl-2-(2,6-dimethyl-phenyl)-2,4-dihydro-pyrazol-3-one]
5.30	CCCCCCCC/C=C\CCCCCCC[c+]1cc(O)n(-c2ccc([N+](=O)[O-])cc2[N+](=O)[O-])[n-]1 [2-(2,4-Dinitro-phenyl)-5-((Z)-heptadec-8-enyl)-2,4-dihydro-pyrazol-3-one]
5.30	CCCCCCCC/C=C\CCCCCCCc1cc(=O)n(-c2ccc(F)cc2F)[nH]1 [2-(2,4-Difluoro-phenyl)-5-((Z)-heptadec-8-enyl)-2,4-dihydro-pyrazol-3-one]
5.30	CCCCCCCC/C=C\CCCCCCCc1cc(=O)n(-c2ccc(C)cc2C)[nH]1 [2-(2,4-Dimethyl-phenyl)-5-((Z)-heptadec-8-enyl)-2,4-dihydro-pyrazol-3-one]
